From patent publication US10233161B2, “Pharmaceutical compositions and salts of a 1,2,4-oxadiazole benzoic acid” (PTC Therapeutics, Inc., priority 2014, dated 2019)

Assay: Comparative equilibrium solubility study of micronized and non-micronized Compound 1
Type: physicochemical
Settings: for Concentration of Compound 1 in 0.1N HCl + 0.5% SLS: pH 1; for Concentration of Compound 1 in PBS: pH 7.4
Description: Objective: The purpose of this study was to evaluate the solubility of micronized and non-micronized Compound 1. The solubility study was conducted in two representative media in pH 1 (0.1 N HCl with 0.5% sodium lauryl sulfate) and in pH 7.4 (0.1M phosphate buffered saline). The experiment further compared the initial rate of dissolution and equilibrium solubilities of micronized and non-micronized Compound 1 over a period of time.
Solubility measurement procedure comprised the steps of: 1) weighing and mixing approximately 100 mg of micronized Compound 1 and 100 mL of 0.1N HCl with 0.5% SLS into amber jar 1; 2) weighing and mixing approximately 100 mg of micronized Compound 1 and 100 mL of PBS into amber jar 2; 3) weighing and mixing approximately 100 mg of non-micronized Compound 1 and 100 mL of 0.1N HCl with 0.5% SLS into amber jar 3; 4) weighing and mixing approximately 100 mg of non-micronized Compound 1 and 100 mL of PBS into amber jar 4; 5) mixing all samples in their respective amber jars using a multi purpose rotator for 2 hours; 4) sampling at 5 minutes, 10 minutes, 30 minutes, 60 minutes, 90 minutes, 120 minutes; 5) filtering the samples and 6) analyzing the filtrates using HPLC. For each time point, 10 mL of sample was drawn using a 10 mL syringe with a needle attached filter and using a syringe-top 0.45 μm PTFE syringe filter. The first 9 mL of the samples collected were put back into the original amber jar and then remaining 1 mL was transferred to HPLC vial for analysis.

## O=C(O)c1cccc(-c2noc(-c3ccccc3F)n2)c1 [Micronized Compound 1]
5 minutes
  Concentration of Compound 1 in 0.1N HCl + 0.5% SLS: 6.85 µg/mL
  Concentration of Compound 1 in PBS: 189.13 µg/mL
10 minutes
  Concentration of Compound 1 in 0.1N HCl + 0.5% SLS: 6.81 µg/mL
  Concentration of Compound 1 in PBS: 191.45 µg/mL
30 minutes
  Concentration of Compound 1 in 0.1N HCl + 0.5% SLS: 6.83 µg/mL
  Concentration of Compound 1 in PBS: 197.59 µg/mL
60 minutes
  Concentration of Compound 1 in 0.1N HCl + 0.5% SLS: 7.04 µg/mL
  Concentration of Compound 1 in PBS: 199.95 µg/mL
90 minutes
  Concentration of Compound 1 in 0.1N HCl + 0.5% SLS: 6.88 µg/mL
  Concentration of Compound 1 in PBS: 200.29 µg/mL
120 minutes
  Concentration of Compound 1 in 0.1N HCl + 0.5% SLS: 7.18 µg/mL
  Concentration of Compound 1 in PBS: 203.08 µg/mL

## O=C(O)c1cccc(-c2noc(-c3ccccc3F)n2)c1 [Non-Micronized Compound 1]
5 minutes
  Concentration of Compound 1 in 0.1N HCl + 0.5% SLS: 6.24 µg/mL
  Concentration of Compound 1 in PBS: 141.89 µg/mL
10 minutes
  Concentration of Compound 1 in 0.1N HCl + 0.5% SLS: 6.38 µg/mL
  Concentration of Compound 1 in PBS: 152.59 µg/mL
30 minutes
  Concentration of Compound 1 in 0.1N HCl + 0.5% SLS: 6.87 µg/mL
  Concentration of Compound 1 in PBS: 176.92 µg/mL
60 minutes
  Concentration of Compound 1 in 0.1N HCl + 0.5% SLS: 6.99 µg/mL
  Concentration of Compound 1 in PBS: 185.18 µg/mL
90 minutes
  Concentration of Compound 1 in 0.1N HCl + 0.5% SLS: 6.97 µg/mL
  Concentration of Compound 1 in PBS: 194.06 µg/mL
120 minutes
  Concentration of Compound 1 in 0.1N HCl + 0.5% SLS: 7.04 µg/mL
  Concentration of Compound 1 in PBS: 196.54 µg/mL
